{"source": "patent US20140193521A1", "about": "“Drug Delivery Systems and Method of Reducing Foal Infection by Treating Mares with Gallium Salts” (priority 2011, published 2014)", "key": {"[1]": {"conditions": "administered to the foal; cited from earlier work"}, "R equi": {"tested_on": "R equi", "conditions": "administered to the foal; cited from earlier work"}, "[2]": {"assay": "Whole blood and serum gallium in horses after gallium nitrate by nasogastric tube / oral dosing", "assay_type": "in vivo", "protocol": "FIG. 1 is a graph showing whole blood concentrations (micromoles/g) of horses in which gallium nitrate was administered daily after pulling blood for two days pre-administration. The horses were treated for five days.\n(§1) For example, without limitation, in horses fed the same amount, the blood concentration increased from 0.0000231 micromoles/g to 0.0009004 micromoles/g well below what is needed to kill R. equi in the blood, but is a […] increase in blood concentration over time. Previous in vitro data found anything over 0.050 micromoles/ml killed R. equi in culture, and higher concentrations worked better. Administering oral gallium nitrate to mares daily achieved about 1.5 to 7.1 micromoles of gallium per gram of dry feces. This also led to a reduction in the concentration of R. equi in the feces of the mares.\n(§2) For example, without limitations, two adult horses were given a single dose of gallium nitrate by nasogastric tube at a dose of 9.2 mg/kg at 1% gallium nitrate concentration. […] Based on tis work, two more horses were dosed with 9.2 mg/kg of daily for 6 days to determine steady state values. […] There were traces of gallium present in both the red blood cells (“RBC”) and smaller amounts in the serum prior to any medication administration. It appears to concentrate in the RBC and move into the serum. The significance of this is unknown."}, "R. equi [3]": {"tested_on": "R. equi", "conditions": "reported; cited from earlier work"}, "[4]": {"conditions": "300 to 1500 mg/kg intraperitoneally; cited from earlier work"}, "R. equi [5]": {"tested_on": "R. equi", "conditions": "cited from earlier work"}, "[6]": {"conditions": "pregnant mice, cited from earlier work"}, "virulent R. equi [7]": {"tested_on": "virulent R. equi", "assay": "Fecal concentration of virulent R. equi in peripartum mares (culture, colony immunoblot)", "assay_type": "in vivo, Rhodococcus equi", "protocol": "(§3) As part of a non-limiting example of an embodiment of the invention, the effect of oral GaN on the concentrations of virulent R. equi in the feces of the mares was determined. Twenty-one horses were randomly assigned in a paired block design to ensure that 10 mares were part of the treated group and 11 mares were part of the control group. These twenty-one Arabian mares were treated daily with either oral gallium nitrate or placebo. Fecal samples were collected at day 320 of gestation (time 1), the week before foaling (time 2), and the week after foaling (time 3). Airborne concentration of R. equi were measured in the stall within 6 hours post foaling using a microbial air sampling system into which standard (100-mm) culture plates with a media selective for R. equi have been loaded. This sample size of mares was selected on the basis of power calculations using the following assumptions: (a) significance level of P=0.05; (b) statistical power of 90%; (c) a mean of 1×10^4 colony forming units (cfu) per gram of feces among control mares; (d) a mean of 1×10^3 cfu per gram of feces among principal mares; and (e) standard deviations of 1×10^4 and 1×10^3 for the control and principal groups, respectively. The values for fecal concentrations were made on the basis of prior experiences of a collaborator. The total number of R. equi colonies on a plate was determined by morphologic identification; additionally, 10 colonies identified as R. equi each month were tested by PCR to confirm that the isolates are R. equi.\n(§4) To determine the number of virulent colonies on each plate, a modified colony immunoblot method was used, as previously described (E.g., Grimm M B, Cohen N D, Slovis N M, et al. Evaluation of mares from a Thoroughbred breeding farm as a source of Rhodococcus equi for their foals using quantitative culture and a colony immunoblot assay. Am J Vet Res 2007; 68:63-71). […]\nConcentrations of total R. equi were determined by morphological characteristics. The concentration of virulent R. equi was determined using a modified colony immunoblot method. […]"}, "R. equi [8]": {"tested_on": "R. equi", "assay": "Airborne concentration of R. equi in foaling stalls shortly after foaling", "assay_type": "in vivo, Rhodococcus equi", "conditions": "stall air after foaling", "protocol": "as §3, with “This sample size of mares was selected on the basis of power calculations using the following assumptions: (a) significance level of P=0.05; (b) statistical power of 90%; (c) a mean of 1×10^4 colony forming units (cfu) per gram of feces among control mares; (d) a mean of 1×10^3 cfu per gram of feces among principal mares; and (e) standard deviations of 1×10^4 and 1×10^3 for the control and principal groups, respectively. The values for fecal concentrations were made on the basis of prior experiences of a collaborator.” left out\nAs part of a non-limiting example of an embodiment of the invention, the following method was employed to determine the effect of oral GAN on the airborne concentration of virulent R. equi in foaling stalls shortly after birth. […] The number of total and virulent R. equi counted on each plate represented the airborne concentrations (cfu/1,000 liters of air). […]"}, "[9]": {"assay": "Safety / adverse effects of gallium nitrate in horses", "assay_type": "in vivo", "protocol": "as §2"}, "virulent R. equi [10]": {"tested_on": "virulent R. equi", "assay": "Virulent R. equi in feces of mares by real-time TaqMan PCR of vapA gene", "assay_type": "in vivo, Rhodococcus equi", "protocol": "As part of a non-limiting example of an embodiment of the invention, virulent R. equi in feces was measured in the feces using the following method. Two milliliters of PBS were added to 1 g of each fecal sample in a conical tube. Thereafter, each sample was vortexed for 10 seconds and centrifuged at 13,000× g for 1 minute. In order to minimize contamination, all pipetting steps were performed in a laminar flow cabinet. Nucleic acid purification from 180 μl of supernatant fluid was performed using an automated nucleic acid extraction system (CAS-1820 X-tractor Gene, Corbett Life Science, Sydney, Australia) according to the manufacturer's recommendations. A real-time TaqMan PCR assay for R. equi has been established and validated. The assay is based on the detection of a specific 75 base-pair long product of the vapA gene of R. equi (GenBank accession number AF116907; oligonucleotides: forward primer […], reverse primer […], probe […]). Each PCR reaction contained 400 nM of each primer, 80 nM of the TaqMan probe and mastermix (TaqMan Universal PCR Mastermix, Applied Biosystems, Foster City, Calif.) and 1 μL of the gDNA sample in a final volume of 12 μL. […] DNA extraction and amplification efficiency were verified by quantitating the universal bacterial 16S rRNA gene. Absolute quantitation of R. equi target molecules was performed using a standard curve and expressed as R. equi vapA target genes per 1 g of feces. […]\nThe number of CFU/g of either virulent R. equi in feces was estimated using real-time PCR. Because these samples were collected serially from individual mares, these longitudinal data were analyzed using mixed-effects modeling, with time (number of days since last known breeding date) and treatment group modeled as fixed effects, and individual mare modeled as a random effect. […] The count of positive samples were determined for each mare, and Poisson regression analysis was used to examine the effects of treatment. […]"}, "[11]": {"assay": "Fecal concentration of gallium in mares given oral gallium nitrate daily", "assay_type": "in vivo", "conditions": "9.2 mg/kg of 1% GaN daily from day 320", "source_text": "FIG. 3 is a graph showing fecal concentration of gallium in ppm of gram of feces in control mares versus treated.\nas §1\nas §4, with “68:63-71). Briefly, this procedure entails applying nitrocellulose membranes to culture plates to transfer bacterial surface proteins, blotting the membranes using a murine monoclonal antibody against the vapA protein, and then using a labeled secondary antibody to detect the presence of vapA-positive (i.e. virulent) colonies.” for “68:63-71).”"}}, "data": [{"smiles": "Cc1occc(=O)c1[O-].Cc1occc(=O)c1[O-].Cc1occc(=O)c1[O-].[Ga+3]", "note": "[Gallium maltolate]", "values": [{"measurement": "gallium serum concentration", "setting": "[1]", "result": "increased"}, {"measurement": "cumulative incidence of R equi pneumonia, control versus treated groups", "setting": "R equi", "result": "no significant differences"}]}, {"smiles": "O=[N+]([O-])[O-].O=[N+]([O-])[O-].O=[N+]([O-])[O-].[Ga+3]", "note": "[gallium nitrate]", "values": [{"measurement": "whole blood concentrations following gallium nitrate administration (FIG. 1)", "setting": "[2]; 9.2 mg/kg daily for 6 days, two horses", "result": "increased"}, {"measurement": "increase in blood concentration over time", "setting": "[2]; horses", "result": 250, "unit": "%"}, {"measurement": "blood concentration of gallium, starting value", "setting": "[2]; horses, value the concentration increased from", "result": 0.0000231, "unit": "µmol/g"}, {"measurement": "blood concentration of gallium, after feeding", "setting": "[2]; horses, value the concentration increased to", "result": 0.0009004, "unit": "µmol/g"}, {"measurement": "time of peak gallium in whole blood and serum", "setting": "[2]; single dose 9.2 mg/kg, 1% gallium nitrate, nasogastric tube", "result": "around 24 hours"}, {"measurement": "time by which absorption of gallium was demonstrated", "setting": "[2]; single dose 9.2 mg/kg, 1% gallium nitrate, nasogastric tube, whole blood and serum", "result": "≤ 6", "unit": "h"}, {"measurement": "R. equi growth in experimentally infected mice", "setting": "R. equi [3]", "result": "decrease R. equi growth"}, {"measurement": "effect on regeneration of bone and cartilage", "setting": "[4]", "result": "dose dependent effect"}, {"measurement": "concentration that killed R. equi in culture", "setting": "R. equi [5]; previous in vitro data", "result": "over 0.050 micromoles/ml"}, {"measurement": "effect on growth of R. equi grown in media", "setting": "R. equi [5]; reported", "result": "significant inhibition in growth and to even kill R. equi"}, {"measurement": "adverse effects in the fetus", "setting": "[6]; 50 mg/kg and below", "result": "no adverse effects"}, {"measurement": "fetal malformations", "setting": "[6]; 100 mg/kg", "result": "cleft palate and renal hypoplasia were increased"}, {"measurement": "concentration of R. equi in the feces of the mares", "setting": "virulent R. equi [7]; oral gallium nitrate daily", "result": "reduction"}, {"measurement": "concentrations of virulent R. equi in feces, treatment group compared to control", "setting": "virulent R. equi [7]; time 3, week after foaling, P<0.05", "result": "significantly lower"}, {"measurement": "concentrations of virulent R. equi in feces, time 3 versus time 1 in treatment group", "setting": "virulent R. equi [7]; week after foaling versus day 320 of gestation, P<0.05", "result": "significantly (P<0.05) lower"}, {"measurement": "treated mares with positive airborne samples", "setting": "R. equi [8]", "result": "2 of 10"}, {"measurement": "adverse effects in dosed horses", "setting": "[9]; 9.2 mg/kg single dose or daily for 6 days", "result": "None of the horses showed any adverse effects"}, {"measurement": "adverse effects in pregnant mares", "setting": "[9]; from conception through foaling", "result": "no demonstrable adverse effects"}, {"measurement": "adverse event claims in field use", "setting": "[9]; used in over 10,000 horses", "result": "not been a single claim of any adverse event"}, {"measurement": "highest level of virulent R. equi in feces in any treated mare", "setting": "virulent R. equi [10]", "result": "17,500 CFU/g"}, {"measurement": "level of virulent R. equi in feces in most treated mares", "setting": "virulent R. equi [10]", "result": "≤ 1,600 CFU/g"}, {"measurement": "level of virulent R. equi in feces in several treated mares", "setting": "virulent R. equi [10]", "result": "almost undetectable levels"}, {"measurement": "fecal concentration of gallium, treated versus control mares (FIG. 3)", "setting": "[11]", "result": "significant increase"}]}]}
